This note sets out measurements from patent US4372948A, “Derivative of saccharide and physiologically active agent containing the same” (Kureha Kagaku Kogyo Kabushiki Kaisha, priority 1980, dated 1983).

The term LD50 denotes the dose at which mortality reaches 50%.

One data set has as its system beta-lipoprotein. Kind of data set: Anti-hyperlipemia activity, beta-lipoprotein in blood. The format is in vivo, rabbit (Japanese white male). Particulars: oral, 300 mg/kg once. The procedure, abridged: (§1)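 Male Japanese white rabbits fed 1% cholesterol diet for 3 months received compound once orally at 300 mg/kg in water. Ear-vein blood: cholesterol by enzymatic method, beta-lipoprotein by colorimetry; values are change from predose at 3 or 6 h.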

The next data set concerns level of blood sugar. Briefly: Anti-hyperglycemia activity (reduction of blood sugar level). The conditions noted are these: oral, 300 mg/kg. The format is in vivo, rat (Wistar, streptozotocin). The procedure, abridged: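 Streptozotocin-diabetic Wistar rats (60 mg/kg i.p., relapsed hyperglycemia after insulin) given compounds orally at 300 mg/kg in distilled water. Blood sugar measured in samples taken 3 and 6 h post-dose.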

The subject of the next data set is acetic acid writhing. Kind of data set: Analgetic activity against chemical stimulation of acetic acid (writhing). Type of data set: in vivo, mouse (ICR female). The conditions noted are these: Mus musculus, po, 30 min before 0.6% acetic acid, read-out: I.R. of writhing. From the text:
Rate of inhibition (I.R.) (%)=(1-T/C)×100
T represents the average number of writhing of the group of mice administered with the present compound and injected with acetic acid, and C represents the average number of writhing of the group of mice only injected with acetic acid (control).
On the technique in general: An intraperitoneal irritant provokes the stretching counted in writhing tests.

The subject of another data set is exudation. Briefly: Anti-exudation activity (air pouch, croton oil). The conditions noted are these: Rattus norvegicus, po, 144 h, 5 days, read-out: I.R. against exudation. Type of data set: in vivo, rat. The procedure, abridged:
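Rats, 6 per group, given subcutaneous dorsal air pouch injected with 0.5 ml sesame oil containing 1% croton oil. Compounds dosed orally in distilled water at 1000 mg/kg/day for five days; pouch exudate volume measured on day 6 and expressed as percent inhibition of exudation.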

The subject of data set [1] is pyrexia (Saccharomyces cerevisiae). Briefly: Anti-pyrexia activity (yeast-induced). Type of data set: in vivo. Particulars: Rattus norvegicus, oral, read-out: Rate of inhibiting pyrexia (I.R.). The procedure, abridged:
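Rats (n=6/group) received subcutaneous 20% Saccharomyces cerevisiae suspension, fasted 10 h, then dosed orally with 1000 mg/kg compound in distilled water. Rectal temperature was tracked at set intervals and the lowest value taken; inhibition rate computed against non-yeast and yeast-only control temperatures.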

In another data set the test system is carrageenin edema. Briefly: Anti-Carrageenin edema activity. The format is in vivo, rat. The conditions noted are these: Rattus norvegicus, po, 1000 mg/kg once, read-out: I.R. against carrageenin edema. The procedure, abridged: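 Rats (10 per group) given compound orally once at 1000 mg/kg in distilled water, then 0.1 ml 1% carrageenin injected into right hind foot pad. Foot pad thickness measured at intervals; inhibition rate (%) = (1−T/C)×100 versus carrageenin-only animals.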

The next data set can be described thus: in vivo. The conditions noted are these: mouse, in vivo, po, mice, 7 days observation, read-out: LD50, acute oral toxicity.
The test system of another data set is blood pressure. Briefly: Anti-hypertension activity (reduction of blood pressure). Type of data set: in vivo, rat (spontaneous hypertension). Particulars: oral, 300 mg/kg. The procedure, abridged:
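Spontaneously hypertensive rats dosed orally at 300 mg/kg in distilled water. Blood pressure measured at 3 and 6 h. Activity taken as change from the value just before dosing.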

The next data set concerns Sarcoma-180. Kind of data set: Anti-tumour activity against Sarcoma-180. The format is in vivo, mouse (ICR-JCL). The conditions noted are these: Mus musculus, Sarcoma-180, po, 600 h, 10 times every other day, tumour weight on 25th day, read-out: Antitumour activity, inhibiting rate (I.R.). The procedure, abridged:
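ICR-JCL mice were given 1×10^6 Sarcoma-180 cells axillary; from 24 hours, compounds in saline were dosed orally at 500 mg/kg/time, 10 times every other day. Tumour nodes were weighed on day 25; inhibition rate = (1-T/C)×100(%) versus untreated tumour-bearing mice.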

Another data set deals with cotton pellet granuloma. Briefly: Anti-granuloma activity (cotton pellet). The conditions noted are these: Rattus norvegicus, po, 192 h, 7 days, read-out: I.R. against cotton pellet edema. The format is in vivo, rat. The procedure, abridged: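 Rats (6/group) implanted dorsally with two 30±1 mg cotton pellets; compounds given orally in distilled water at 1000 mg/kg/day once daily for 7 days. Granuloma excised on day 8 and dry weight measured; value is % inhibition of granuloma proliferation.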

In data set [2] the test system is pseudo-escaping reaction to tail pressure. Kind of data set: Analgetic activity against mechanical stimulation of pressure. Type of data set: in vivo, mouse (ICR female). Particulars: oral, 1000 mg/kg.
In another data set the test system is total cholesterol. Kind of data set: Anti-hyperlipemia activity, total cholesterol in blood. The format is in vivo, rabbit (Japanese white male). Particulars: oral, 300 mg/kg once; for Reduction of cholesterol level after 3 hrs.: negative = raising. The procedure, abridged: as §1

On to `O=C(OCc1ccccc1)c1cccc(NC2O[C@H](CO)[C@@H](O[C@@H]3O[C@H](CO)[C@H](O)[C@H](O)[C@H]3O)[C@H](O)[C@H]2O)c1` (stereo partly drawn) [Compound 12, benzyl m-aminobenzoate-N-lactoside], for which, in the data set with beta-lipoprotein, the “Reduction of beta-lipoprotein level after 3 hrs.” value worked out at 121 mg/dL and the “Reduction of beta-lipoprotein level after 6 hrs.” value stood at 124 mg/dL. In the data set on level of blood sugar, the “Reduced level of blood sugar after 3 hrs.” value stood at 52 mg/dL and the “Reduced level of blood sugar after 6 hrs.” value amounted to 95 mg/dL. Further, the inhibition in vivo at 1000 mg/kg with acetic acid writhing came to 33%. Moreover, the inhibition in vivo at 1000 mg/kg/day with exudation came out at 10.7%. Moreover, in [1], the inhibition in vivo at 1000 mg/kg is 17%. Further, the inhibition in vivo at 1000 mg/kg in the data set on carrageenin edema stood at 18.7%. The LD50 at 168 h in “in vivo” was found to be 11500 mg/kg. Also, in the data set with blood pressure, the “Reduced level of blood pressure after 3 hrs.” value stood at 16 mm Hg and the “Reduced level of blood pressure after 6 hrs.” value is recorded as 18 mm Hg. Besides, the inhibition in vivo at 500 mg/kg in the data set with Sarcoma-180 was found to be 37%. Also, the inhibition in vivo at 1000 mg/kg/day with cotton pellet granuloma was 8.4%. In data set [2], this compound showed a Pseudo-escapting reaction pressure of 90 mmHg and a Pseudo-escapting reaction time of 42 s. Besides, in the data set with total cholesterol, the “Reduction of cholesterol level after 3 hrs.” value was 7 mg/dL and the “Reduction of cholesterol level after 6 hrs.” value is 48 mg/dL.

As for `O=C(OCc1ccccc1)c1ccc(NC2C[C@H](O)[C@H](O)CO2)cc1` (stereo partly drawn) [Compound 13, benzyl p-aminobenzoate-N-D-deoxyriboside], in the data set with beta-lipoprotein, the “Reduction of beta-lipoprotein level after 3 hrs.” value was determined as 135 mg/dL and the “Reduction of beta-lipoprotein level after 6 hrs.” value is 144 mg/dL. In the data set with level of blood sugar, the “Reduced level of blood sugar after 3 hrs.” value was found to be 108 mg/dL and the “Reduced level of blood sugar after 6 hrs.” value worked out at 113 mg/dL. For the same compound, the inhibition in vivo at 1000 mg/kg in the data set with acetic acid writhing stood at 24%. Further, in the data set on exudation, the inhibition in vivo at 1000 mg/kg/day came to 23.5%. For the same compound, the inhibition in vivo at 1000 mg/kg in [1] was 39%. Besides, the inhibition in vivo at 1000 mg/kg in the data set on carrageenin edema is 7%. In the data set “in vivo”, the LD50 at 168 h was found to be 9200 mg/kg. In the data set on blood pressure, the “Reduced level of blood pressure after 3 hrs.” value came to 20 mm Hg and the “Reduced level of blood pressure after 6 hrs.” value is 21 mm Hg. The inhibition in vivo at 500 mg/kg in the data set on Sarcoma-180 stood at 38%. In the data set with cotton pellet granuloma, the inhibition in vivo at 1000 mg/kg/day stood at 4.2%. In [2], the Pseudo-escapting reaction pressure turned out to be 82 mmHg and the Pseudo-escapting reaction time turned out to be 40 s. In the data set on total cholesterol, the “Reduction of cholesterol level after 3 hrs.” value was found to be 4 mg/dL and the “Reduction of cholesterol level after 6 hrs.” value is 35 mg/dL.

Take `O=C(OCc1ccccc1)c1ccc(NC2O[C@H](CO)[C@@H](O)[C@H](O)[C@H]2O)cc1` (stereo partly drawn) [Compound 14, benzyl p-aminobenzoate-N-D-glucoside]: in the data set on beta-lipoprotein, the “Reduction of beta-lipoprotein level after 3 hrs.” value was found to be 143 mg/dL and the “Reduction of beta-lipoprotein level after 6 hrs.” value came to 146 mg/dL. For the same compound, in the data set on level of blood sugar, the “Reduced level of blood sugar after 3 hrs.” value is 65 mg/dL and the “Reduced level of blood sugar after 6 hrs.” value amounted to 93 mg/dL. Also, in the data set on acetic acid writhing, the inhibition in vivo at 1000 mg/kg was found to be 39%. The inhibition in vivo at 1000 mg/kg/day with exudation worked out at 6.9%. Besides, the inhibition in vivo at 1000 mg/kg in data set [1] was 56%. In addition, the inhibition in vivo at 1000 mg/kg in the data set on carrageenin edema worked out at 5.1%. The median lethal dose (LD50) at 168 h in the data set “in vivo” was found to be 11700 mg/kg. In the data set with blood pressure, the “Reduced level of blood pressure after 3 hrs.” value was 24 mm Hg and the “Reduced level of blood pressure after 6 hrs.” value is 24 mm Hg. For the same compound, the inhibition in vivo at 500 mg/kg in the data set on Sarcoma-180 was determined as 42%. For the same compound, the inhibition in vivo at 1000 mg/kg/day in the data set with cotton pellet granuloma was 23.3%. In addition, in [2], the Pseudo-escapting reaction pressure turned out to be 92 mmHg and the Pseudo-escapting reaction time worked out at 44 s. In the data set on total cholesterol, the “Reduction of cholesterol level after 3 hrs.” value is 3 mg/dL and the “Reduction of cholesterol level after 6 hrs.” value came to 38 mg/dL.
